Format in all cases: biochemical
In one assay the target is T1, MMP-8 (Homo sapiens, UniProt P22894).
T1 construct: catalytic domain (^99Phe˜^262Gly) was amplified with PCR; His-tag; enterokinase digestion-site; made in house; host or cells: Escherichia coli
As to the kind of experiment: Assay for inhibitory activities on MMPs (fluorogenic peptide substrate), MMP-8. The note with it: catalytic domain 99Phe-262Gly; substrate MOCAc-Pro-Leu-Gly-Leu-A2Pr(DNP)-Ala-Arg-NH2. An excerpt: In regard to MMP-8, catalytic domain (^99Phe˜^262Gly) was amplified with PCR using commercial available Human Bone Marrow cDNA. This was cloned in Escherichia. coli expression vector pTrc99AHE inserted with His-tag sequence and enterokinase digestion-site, induced and expressed by IPTG (Isopropyl-β-D-thiogalactopyranoside) and expressed in a insoluble fraction (Thau F. Ho, M. Walid Qoronfleh, Robert C. Wahl, Trica A. Pulvino, Karen J. Vavra, Joe Falvo, Tracey M. Banks, Patricia G. Brake and Richard B. Ciccarelli: Gene expression, purification and characterization of recombinant human neutrophil collagenase. Gene 146, (1994) 297-301, Prepared by the a improved method of this material). Isolation of MMP-8 from an insoluble fraction was carried out by dissolving in modifier (6M urea) by a usual method and purification with metal chelate chromatography. And then removing modifier (6M urea) with dialysis and refolding of the enzyme spontaneously gave activated MMP-8.
(§1) The enzymatic activity on MMPs was analyzed by the method described in “C. Graham Knight, Frances Willenbrock and Gillian Murphy: A novel coumarin-labelled peptide for sensitive continuous assays of the matrix metalloproteinases: FEBS LETT., 296, (1992), 263-266”. The substrate MOCAc-Pro-Leu-Gly-Leu-A2Pr(DNP)-Ala-Arg-NH2 was purchased from Peptide Institute, Inc., Osaka, Japan. The measurement of the inhibitory activities (IC50) was carried out by the following four methods;
(§2) (A) Reaction with substrate, enzyme (MMPs) and inhibitor
(§3) (B) Reaction with substrate and inhibitor, without enzyme
(§4) (C) Reaction with substrate and enzyme (MMPs), without inhibitor
(§5) (D) Reaction with substrate only
(§6) IC50 values were calculated by using the following formula and each fluorescence values of above four methods (A to D). % inhibition={1−(A−B)/(C−D)}×100 IC50 means the concentration required to inhibit 50% of the enzyme activity.

The target in the next assay is T2, MMP-9 (Homo sapiens, UniProt P14780).
T2 construct: endogenous in cells; host or cells: HT1080 human fibrosarcoma cells, TPA-stimulated; enzyme purified from conditioned medium
The experiment in a line: Assay for inhibitory activities on MMPs (fluorogenic peptide substrate), MMP-9. The following applies: MMP-9 from HT1080 cells, activated by TPCK-Trypsin; substrate MOCAc-Pro-Leu-Gly-Leu-A2Pr(DNP)-Ala-Arg-NH2.
Source text: MMP-9 was isolated and purified by procedures described in as follows: Yasunori Okada, Yukio Gonoji, Katsumi Naka, Katsuro Tomita, Isao Nakanishi, Kazushi Iwata, Kyoko Yamashita, and Taro Hayakawa: Matrix metalloproteinase 9 (92-kDa gelatinase/type IV collagenase) from HT1080 human fibrosarcoma cells. Purification and activation of the precursor and enzymic properties J. Biol. Chem., 1992, 267 21712-21719, in combination with others: 1)Yasunori Okada, Tatsuhisa Morodomi, Jan J, Enghild, ko Suzuki, Atsushi Yasui, Isao Nakanishi, Guy Salvesen and Hideaki Nagase: Matrix metalloproteinase 2 from human rheumatoid synovial fibroblasts. Purification and activation of the precursor and enzymic properties. Eur. J. Biochem. 1990, 194 721-730; 2)Robin V Ward, Rosalind M Hembry, John J Reynolds and Gillian Murphy: The purification of tissue inhibitor of metalloproteinase-2 from its 72 kDa progelatinase complex. Biochem. J. 1991 278 179-187. In detail, human fibrosarcoma ATCC HT1080 cell line was cultured to confluent in Dulbecco's Modified Medium (DMEM) containing 10% fetal-calf serum at 37° C. for 48 hours. Subsequently, the medium of confluent culture was changed to serum-free DMEM medium. To obtain MMP-9, Phorbol-12-myristate-13-acetate (TPA) must be added to this serum-free DMEM medium at a concentration of 50 ng/ml. The TPA treated medium was centrifuged at 3000 rpm for 15 min and the supernatant was concentrated to 450 ml by a Toyo-Roshi UP-20 apparatus with an ultrafiltration membrane. Then, proMMP-9 in this concentrated solution was purified by using columns of Gelatin-Sepharose and Concanavalin A-Sepharose. The pool containing proMMP-9 was dialyzed, concentrated (Toyo-Roshi UP-20) and applied to columns of Sephacryl S-200 and Green A matrix for the separation from TIMPs. The obtained proMMP-9 fraction was activated by TPCK-Trypsin (Final conc. 3 μg/501 μl React Mix.).
as §1, §2, §3, §4, §5, §6

The next assay has as its target T3, MMP-13 (Homo sapiens, UniProt P45452).
T3 construct: catalytic domain (^104Tyr˜^267Gly) was amplified with RT-PCR; His-tag; enterokinase digestion-site; made in house; host or cells: Escherichia coli
As to the kind of experiment: Assay for inhibitory activities on MMPs (fluorogenic peptide substrate), MMP-13. The note with it: catalytic domain 104Tyr-267Gly; substrate MOCAc-Pro-Leu-Gly-Leu-A2Pr(DNP)-Ala-Arg-NH2. The method, then: (§7) In regard to MMP-13, mRNA was prepared from carcinoma cell SW1353 derived from human cartilage stimulate by IL-1, TNF and catalytic domain (^104Tyr˜^267Gly) was amplified with RT-PCR. This was cloned in Escherichia. coli expression vector pTrc99AHE inserted with His-tag sequence and enterokinase digestion-site, induced and expressed by IPTG (Isopropyl-β-D-thiogalactopyranoside) and expressed in a insoluble fraction. Isolation of MMP-13 from an insoluble fraction was carried out by dissolving in modifier (6M urea) by a usual method and purification with metal chelate chromatography (Ni Chelateing Sepharose). And then removing modifier (6M urea) with dialyze and refolding of the enzyme spontaneously gave activated MMP-13.
as §1, §2, §3, §4, §5, §6

In another assay the target is T4, MMP-12 (Homo sapiens, UniProt P39900).
T4 construct: catalytic domain(^100Phe˜^263Gly) was amplified with RT-PCR; His-tag; enterokinase digestion-site; made in house; host or cells: Escherichia coli
The experiment in a line: Assay for inhibitory activities on MMPs (fluorogenic peptide substrate), MMP-12. The following applies: catalytic domain 100Phe-263Gly; substrate MOCAc-Pro-Leu-Gly-Leu-A2Pr(DNP)-Ala-Arg-NH2. The protocol:
as §7, with “MMP-12,” for “MMP-13, mRNA was prepared from carcinoma cell SW1353 derived from human cartilage stimulate by IL-1, TNF and”, “domain(^100Phe˜^263Gly)” for “domain (^104Tyr˜^267Gly)”, “RT-PCR from Human Placenta Total RNA.” for “RT-PCR.”, “MMP-12” for “MMP-13”, “dialysis” for “dialyze”, “MMP-12.” for “MMP-13.”
as §1, §2, §3, §4, §5, §6

For the next assay, the target named is T5, MMP-2 (Homo sapiens, UniProt P08253).
T5 construct: purchased Calbiochem-Novabiochem International, Inc
T5 sequence (P08253 110-660): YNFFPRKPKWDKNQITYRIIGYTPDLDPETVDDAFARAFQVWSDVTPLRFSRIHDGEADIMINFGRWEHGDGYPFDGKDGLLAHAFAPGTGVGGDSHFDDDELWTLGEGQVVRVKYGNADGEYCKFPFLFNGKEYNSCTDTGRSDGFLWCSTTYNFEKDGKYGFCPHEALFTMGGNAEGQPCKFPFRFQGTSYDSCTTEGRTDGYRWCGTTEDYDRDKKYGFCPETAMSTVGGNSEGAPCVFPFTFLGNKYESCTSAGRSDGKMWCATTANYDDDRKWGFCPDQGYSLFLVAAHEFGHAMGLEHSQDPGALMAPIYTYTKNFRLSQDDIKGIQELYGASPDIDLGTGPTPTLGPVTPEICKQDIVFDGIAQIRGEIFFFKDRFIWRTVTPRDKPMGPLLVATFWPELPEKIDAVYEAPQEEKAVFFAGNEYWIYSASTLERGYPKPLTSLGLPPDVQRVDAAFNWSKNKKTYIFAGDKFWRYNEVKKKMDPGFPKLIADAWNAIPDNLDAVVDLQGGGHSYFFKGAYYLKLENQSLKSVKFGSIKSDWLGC
The experiment in a line: Assay for inhibitory activities on MMPs (fluorogenic peptide substrate), MMP-2. The note with it: purchased MMP-2; substrate MOCAc-Pro-Leu-Gly-Leu-A2Pr(DNP)-Ala-Arg-NH2. The method, then: MMP-2 was purchased from Calbiochem-Novabiochem International, Inc.
as §1, §2, §3, §4, §5, §6

T2 sequence (P14780 107-707 limits assumed): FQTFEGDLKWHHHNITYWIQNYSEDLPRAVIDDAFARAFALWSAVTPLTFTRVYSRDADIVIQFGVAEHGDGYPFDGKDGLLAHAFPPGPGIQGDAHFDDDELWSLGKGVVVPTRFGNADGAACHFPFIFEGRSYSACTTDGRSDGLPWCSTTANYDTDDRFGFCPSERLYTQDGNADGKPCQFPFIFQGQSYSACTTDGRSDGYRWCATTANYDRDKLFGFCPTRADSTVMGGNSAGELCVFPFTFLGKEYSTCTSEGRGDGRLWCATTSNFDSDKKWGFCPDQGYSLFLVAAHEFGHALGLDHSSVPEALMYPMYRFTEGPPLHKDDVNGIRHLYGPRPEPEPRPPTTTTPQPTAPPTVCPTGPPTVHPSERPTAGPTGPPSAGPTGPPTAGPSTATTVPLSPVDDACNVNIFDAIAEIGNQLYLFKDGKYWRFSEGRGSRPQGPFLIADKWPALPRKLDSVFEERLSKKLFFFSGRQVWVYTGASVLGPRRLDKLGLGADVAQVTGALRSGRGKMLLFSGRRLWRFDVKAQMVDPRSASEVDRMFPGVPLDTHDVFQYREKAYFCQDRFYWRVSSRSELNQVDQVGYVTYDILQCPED
T4 sequence (P39900 100-263): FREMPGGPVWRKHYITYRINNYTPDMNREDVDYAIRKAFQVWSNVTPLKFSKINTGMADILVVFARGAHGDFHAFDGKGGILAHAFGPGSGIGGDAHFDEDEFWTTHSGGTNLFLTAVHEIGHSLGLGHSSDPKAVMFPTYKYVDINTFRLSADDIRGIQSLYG
T1 sequence (P22894 99-262): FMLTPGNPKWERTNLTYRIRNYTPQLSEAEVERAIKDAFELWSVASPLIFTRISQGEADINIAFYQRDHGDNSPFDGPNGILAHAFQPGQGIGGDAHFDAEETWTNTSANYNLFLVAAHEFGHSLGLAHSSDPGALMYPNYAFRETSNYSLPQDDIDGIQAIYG

With `O=C(O)[C@@H](Cc1ccccc1)NS(=O)(=O)c1ccc(-c2ncc(-c3ccccc3)s2)cc1` [Compound B-11], the IC50 on MMP-8 is 26.1 nM; at MMP-9 it was 16.2 nM; against MMP-13, 6.34 nM; against MMP-12, 2.4 nM; at MMP-2, 1.08 nM.
Taken in the same sequence, the figures for `O=C(O)[C@H](Cc1ccccc1)NS(=O)(=O)c1ccc(-c2ncc(-c3ccccc3)s2)cc1` [Compound B-12] were 25.9 nM, 66.9 nM, 9.3 nM, 3.69 nM and 1.44 nM.
As for `C[C@H](NS(=O)(=O)c1ccc(-c2ncc(-c3ccc(Cl)cc3)s2)cc1)C(=O)O` [Compound B-26], the IC50 against MMP-8 turned out to be 42.5 nM; at MMP-9, 54.4 nM; against MMP-13, 14.1 nM; at MMP-12 it was 1.24 nM; against MMP-2, 8.3 nM.
For `COc1ccc(-c2cnc(-c3ccc(S(=O)(=O)N[C@H](CC(C)C)C(=O)O)cc3)o2)cc1` [Compound A-28] the same measures were 26.1 nM, 483 nM, 44.8 nM, 5.05 nM and 10.9 nM.
Taken in the same sequence, the figures for `COc1ccc(-c2cnc(-c3ccc(S(=O)(=O)N[C@H](C)C(=O)O)cc3)o2)cc1` [Compound A-8] were 25.2 nM, 218 nM, 22.6 nM, 2.78 nM and 3.37 nM.
Taken in the same sequence, the figures for `COc1ccc(-c2cnc(-c3ccc(S(=O)(=O)N[C@@H](C)C(=O)O)cc3)o2)cc1` [Compound A-9] were 266 nM, 9320 nM, 433 nM, 27.3 nM and 287 nM.
Consider `O=C(O)[C@H](Cc1ccccc1)NS(=O)(=O)c1ccc(-c2ncc(-c3ccc(Cl)cc3)s2)cc1` [Compound B-14], for which the IC50 against MMP-8 was 72.8 nM; on MMP-9 it was 19.5 nM; at MMP-13 it was 11 nM; against MMP-12 it was 2.49 nM; against MMP-2, 2.56 nM.
For `CC(C)C[C@@H](NS(=O)(=O)c1ccc(-c2ncc(-c3ccc(Cl)cc3)o2)cc1)C(=O)O` [Compound A-30] the same measures were 320 nM, 502 nM, 226 nM, 11.4 nM and 44.4 nM.
For `O=C(O)CNS(=O)(=O)c1ccc(-c2ncc(-c3ccc(Cl)cc3)s2)cc1` [Compound B-52] the same measures were 453 nM, 34.7 nM, 29.5 nM, 5.55 nM and 2.5 nM.
Taken in the same sequence, the figures for `CSCC[C@@H](NS(=O)(=O)c1ccc(-c2ncc(-c3ccc(Cl)cc3)o2)cc1)C(=O)O` [Compound A-36] were 127 nM, 226 nM, 140 nM, 2.98 nM and 16.3 nM.
As to `C[C@@H](NS(=O)(=O)c1ccc(-c2ncc(-c3ccc(Br)cc3)s2)cc1)C(=O)O` [Compound B-29], the IC50 worked out at 45.2 nM on MMP-8; 5.82 nM at MMP-9; 2.6 nM against MMP-13; 0.47 nM on MMP-12; 0.313 nM against MMP-2.
In the case of `CC(C)[C@H](NS(=O)(=O)c1ccc(-c2ncc(-c3ccccc3)o2)cc1)C(=O)O` [Compound A-22], the IC50 is 53.3 nM against MMP-8; 144 nM on MMP-9; 5.31 nM against MMP-13; 2.69 nM against MMP-12; 7.84 nM against MMP-2.
For `CC(C)[C@@H](NS(=O)(=O)c1ccc(-c2ncc(-c3ccc(F)cc3)s2)cc1)C(=O)O` [Compound B-8] the same measures were 10.5 nM, 11.1 nM, 9.53 nM, 1.96 nM and 1.38 nM.
For `O=C(O)[C@@H](Cc1ccccc1)NS(=O)(=O)c1ccc(-c2ncc(-c3ccc(F)cc3)s2)cc1` [Compound B-17] the same measures were 22.4 nM, 22.6 nM, 12.1 nM, 3.21 nM and 2.09 nM.
Taken in the same sequence, the figures for `CC(C)[C@@H](NS(=O)(=O)c1ccc(-c2ncc(-c3ccc4ccccc4c3)o2)cc1)C(=O)O` [Compound A-50] were 146 nM, 88.6 nM, 11.9 nM, 0.699 nM and 4.86 nM.
